Columns and labels:
SSTR5 [1] = biological target: T1, SSTR5 (Homo sapiens, UniProt P35346); assay: Functional assay of SSTR5 mediated cyclic AMP production in SSTR5 expressing CHO cells; type: cell-based, human or mouse; conditions: Table 2; FSK plus SS-28; read-out: SSTR5 (cAMP) IC50
SSTR5 [2] = biological target: T1, SSTR5; assay: SSTR5 receptor-ligand binding assay, CHO-K1 cell membranes, 125I-SRIF radioligand; parameters: expressed in transfected cells; host or cells: CHO-K1 (membranes); conditions: Table 2
Protocol: The receptor-ligand binding assays of all 5 subtype of SSTRs were performed with membranes isolated from Chinese hamster ovary (CHO)-K1 cells stably expressing the cloned human somatostatin receptors in 96-well format as previous reported.
The stable cell lines for SSTR1-SSTR5 were developed by stably transfecting with DNA for all five SSTRs using Lipofectamine. […] The assay buffer consisted of 50 mM TrisHCl (pH 7.8) with 1 mM EGTA, 5 mM MgCl2, leupeptin (10 μg/mL), pepstatin (10 μg/mL), bacitracin (200 μg/mL), and aprotinin (0.5 μg/mL). CHO-K1 cell membranes, radiolabeled somatostatin, and unlabeled test compounds were resuspended or diluted in this assay buffer. Unlabeled test compounds were examined over a range of concentrations from 0.01 nM to 10,000 nM.

T1 sequence (P35346 whole entry): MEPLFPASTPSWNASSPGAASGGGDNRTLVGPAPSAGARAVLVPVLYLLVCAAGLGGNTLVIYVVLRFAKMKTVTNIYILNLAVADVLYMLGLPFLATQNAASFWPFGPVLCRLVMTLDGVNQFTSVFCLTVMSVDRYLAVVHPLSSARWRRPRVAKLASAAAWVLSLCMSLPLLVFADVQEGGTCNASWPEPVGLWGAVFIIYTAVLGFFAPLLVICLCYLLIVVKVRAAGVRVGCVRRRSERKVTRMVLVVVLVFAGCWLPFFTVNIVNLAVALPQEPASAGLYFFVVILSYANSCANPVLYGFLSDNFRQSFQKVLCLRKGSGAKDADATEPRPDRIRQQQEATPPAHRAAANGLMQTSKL

Row | IC50 (SSTR5 [1]) | Ki (SSTR5 [2]) | SMILES
1 | 1.5 nM | 0.84 nM | CCOc1cc(CN2CCC3(CC2)CC(=O)N(c2ccc(C(=O)O)cc2)C3)cc(OCC)c1-c1ccc(F)c(F)c1F [Example 45]
2 | 52 nM | 21 nM | CCOc1cc(CN2CCC3(CC2)CNC(=O)C3)cc(OCC)c1-c1ccc(F)cc1 [Example 1, 8-[(2,6-diethoxy-4′-fluorobiphenyl-4-yl)methyl]-2,8-diazaspiro[4.5]decan-3-one]
3 | 13 nM | 2 nM | CCOc1cc(CN2CCC3(CC2)CC(=O)N(c2ccccc2S(C)(=O)=O)C3)cc(OCC)c1-c1ccc(F)cc1 [Example 61]
4 | 3.6 nM | 10 nM | CCOc1cc(CN2CCC3(CC2)CC(=O)N(c2cncc(C(=O)O)c2)C3)cc(OCC)c1-c1ccc(F)cc1 [Example 57]
5 | 42 nM | 55 nM | CCOc1cc(CN2CCC3(CC2)CC(=O)N(c2ccc(C(=O)O)cc2)C3)cc(OCC)c1OCC(F)(F)F [Example 153]
6 | 15 nM | 14 nM | CC(C)Oc1cc(CN2CCC3(CC2)CC(=O)N(c2ccc(C(=O)O)cc2)C3)cc(OC(C)C)c1C#N [Example 152]
7 | 8.6 nM | 3.9 nM | CCOc1cc(CN2CCC3(CC2)CC(=O)N(Cc2ccc(F)cc2)C3)cc(OCC)c1-c1ccc(F)cc1 [Example 53]
8 | 159 nM | 71 nM | CCOc1cc(CN2CCC3(CC2)CC(=O)N(CCO)C3)cc(OCC)c1-c1ccc(F)cc1 [Example 9, 8-[(2,6-diethoxy-4′-fluorobiphenyl-4-yl)methyl]-2-(2-hydroxyethyl)-2,8-diazaspiro[4.5]decan-3-one trifluoromethyl acetate]
9 | 1.3 nM | 0.76 nM | CCOc1cc(CN2CCC3(CC2)CC(=O)N(c2ccc(-c4nnn[nH]4)cc2)C3)cc(OCC)c1-c1ccc(F)cc1 [Example 7, 8-[(2,6-diethoxy-4′-fluorobiphenyl-4-yl)methyl]-2-[4-(1-H-tetrazol-5-yl)phenyl]-2,8-diazaspiro[4.5]decan-3-one trifluoromethyl acetate]
10 | 33 nM | 8.7 nM | CCOc1cc(CN2CCC3(CC2)CC(=O)N(c2ccc(C(N)=O)cc2)C3)cc(OCC)c1-c1ccc(F)cc1 [Example 3, 4-{8-[(2,6-diethoxy-4′-fluorobiphenyl-4-yl)methyl]-3-oxo-2,8-diazaspiro[4.5]dec-2-yl}benzamide trifluoromethyl acetate]
11 | 21 nM | 67 nM | CCOc1cc(CN2CCC3(CC2)CC(=O)N(Cc2cccc(C(=O)O)c2)C3)cc(OCC)c1-c1ccc(F)cc1 [Example 52]
12 | 7.3 nM | 11 nM | CCOc1ccc(-c2ccc(F)cc2F)c(CN2CCC3(CC2)CC(=O)N(c2ccc(C(=O)O)cc2)C3)c1 [Example 94]
13 | 1.8 nM | 4.5 nM | O=C(O)c1ccc(N2CC3(CCN(Cc4cc(OC5CC5)c(-c5ncc(F)cc5F)c(OC5CC5)c4)CC3)CC2=O)cc1 [Example 66]
14 | 0.28 nM | 1.55 nM | CCOc1cc(CN2CCC3(CC2)CC(=O)N(c2ccc(C(=O)O)cc2)C3)cc(OCC)c1-c1cc(F)ccc1F [Example 44]
15 | 0.62 nM | 0.86 nM | CCOc1cc(CN2CCC3(CC2)CC(=O)N(c2ccc(C(=O)O)cc2)C3)cc(OCC)c1-c1ccc(C(F)(F)F)cc1 [Example 35]
16 | 82 nM | 157 nM | CCOc1cc(CN2CCC3(CC2)CC(=O)N(c2ccc(C(=O)O)cc2)C3)cc(OCC)c1OCC [Example 148]
17 | 3.1 nM | 3.1 nM | CCOc1cc(CN2CCC3(CC2)CC(=O)N(c2ccc(O)nc2)C3)cc(OCC)c1-c1ccc(F)cc1 [Example 74]
18 | 3.9 nM | 7.5 nM | CCOc1cc(CN2CCC3(CC2)CC(=O)N(c2ccc(C(=O)O)cc2)C3)cc(OCC)c1Br [Example 5]
19 | 64 nM | 337 nM | CCOc1cc(CN2CCC3(CC2)CC(=O)N(c2nccc(O)n2)C3)cc(OCC)c1-c1ccc(F)cc1 [Example 87]
20 | 0.6 nM | 0.485 nM | CCOc1cc(CN2CCC3(CC2)CC(=O)N(c2ccc(C(=O)O)cc2)C3)cc(OCC)c1-c1ccc(OC(F)(F)F)cc1 [Example 37]
21 | 34 nM | 8.9 nM | CCOc1cc(CN2CCC3(CC2)CC(=O)N(c2ccc(-c4n[nH]c(=O)o4)cc2)C3)cc(OCC)c1-c1ccc(F)cc1 [Example 49]
22 | 3.6 nM | 4.5 nM | CCOc1cc(CN2CCC3(CC2)CC(=O)N(c2ccc(C(=O)O)cc2)C3)cc(OCC)c1-c1ncc(F)cc1F [Example 65]
23 | 159 nM | 190 nM | CCOc1cc(CN2CCC3(CC2)CC(=O)N(CC(=O)O)C3)cc(OCC)c1-c1ccc(F)cc1 [Example 8, {8-[(2,6-diethoxy-4′-fluorobiphenyl-4-yl)methyl]-3-oxo-2,8-diazaspiro[4.5]dec-2-yl}acetic acid trifluoromethyl acetate]
24 | > 1000 nM | 1600 nM | O=C(O)c1ccc(N2CC3(CCN(Cc4cc(O)c(-c5ccc(F)cc5)c(O)c4)CC3)CC2=O)cc1 [Example 162]
25 | 44 nM | 53 nM | CCOc1cc(CN2CCC3(CC2)CC(=O)N(CCCC(=O)O)C3)cc(OCC)c1-c1ccc(F)cc1 [Example 23]
26 | 7.9 nM | 3.7 nM | CCOc1cc(CN2CCC3(CC2)CC(=O)N(c2cncc(O)c2)C3)cc(OCC)c1-c1ccc(F)cc1 [Example 81]
27 | 1.8 nM | 7.5 nM | CCOc1ccc(-c2ccc(F)c(F)c2F)c(CN2CCC3(CC2)CC(=O)N(c2ccc(C(=O)O)cc2)C3)c1 [Example 97]
28 | 1.8 nM | 1 nM | CCOc1cc(CN2CCC3(CC2)CC(=O)N(c2ccc(-c4noc(=O)[nH]4)cc2)C3)cc(OCC)c1-c1ccc(F)cc1 [Example 6, 8-[(2,6-diethoxy-4′-fluorobiphenyl-4-yl)methyl]-2-[4-(5-oxo-4,5-dihydro-1,2,4-oxadiazol-3-yl)phenyl]-2,8-diazaspiro[4.5]decan-3-one]
29 | 4.7 nM | 3.6 nM | CCOc1cc(CN2CCC3(CC2)CC(=O)N(c2cccc(-c4nnn[nH]4)c2)C3)cc(OCC)c1-c1ccc(F)cc1 [Example 59]

Row | SMILES | IC50 (SSTR5 [1]) | Ki (SSTR5 [2])
30 | CCOc1cc(CN2CCC3(CC2)CC(=O)N(c2ccc(C(=O)O)cc2)C3)ccc1Cl [Example 159] | 61 nM | 130 nM
31 | CCOc1cc(CN2CCC3(CC2)CC(=O)N(c2ccc(C(=O)O)cn2)C3)cc(OCC)c1-c1ccc(F)cc1 [Example 84] | 4.7 nM | 7.7 nM
32 | CCOc1cc(CN2CCC3(CC2)CC(=O)N(c2ccc(C(=O)O)cc2)C3)cc(-c2ccc(F)cc2F)c1 [Example 107] | 36 nM | 40 nM
33 | CCOc1cc(CN2CCC3(CC2)CC(=O)N(c2ccc(C(=O)O)nc2)C3)cc(OCC)c1-c1ccc(F)cc1 [Example 85] | 6.17 nM | 5.27 nM
34 | CCOc1cc(CN2CCC3(CC2)CC(=O)N(c2cccc(C(N)=O)c2)C3)cc(OCC)c1-c1ccc(F)cc1 [Example 60] | 16 nM | 4.1 nM

Reference: patent publication US20120041012A1, “SUBSTITUTED SPIROCYCLIC AMINES USEFUL AS ANTIDIABETIC COMPOUNDS” (priority 2009, published 2012)
